Assays:
Format in all cases: in vivo
[1] = system: Green peach aphids (Myzus persicae); experiment: Hydroponic test against green peach aphids, bare-root green pepper plants; conditions: bare roots immersed 24 hours, assay 3 days, read-out: mortality in comparison with untreated controls
Method: II.7.1 Activity in the Hydroponic Tests Against Green Peach Aphids (Myzus persicae)
(§1) Green pepper plants (Capsicum annuum L., variety ‘California Wonder’) are grown in the greenhouse from seed to the second true leaf stage (BBCH 12) in Scott's MetroMix® 360 (1-2 plants per 2¼″ square pot). Cotyledon leaves are removed and roots are rinsed in tap water until free of soil. The roots are kept moist under a layer of wet paper toweling until all plants have been prepared.
(§2) A 3,400 ppm stock solution is prepared of each test compound using reagent grade acetone as the solvent. Subsequent dilutions of 100 and 10 ppm are prepared from this stock with final dilutions in deionized water in 100 ml amber glass bottles. One bare root plant is placed in each bottle using a foam plug section to centrally secure the stem in the bottleneck. The bare roots are fully-immersed in the test suspensions. Host plants are placed in a plant growth room under continuous GroLux® fluorescent lighting (40W), for 24 hours at 25±2° C. and 20-40% RH.
(§3) After exposure of the bare roots to the test suspensions, pieces of pepper plants infested with green peach aphid (Myzus persicae) are placed on top of the test foliage. Insects are allowed to transfer from the host leaves to accomplish an infestation of 40-50 insects per plant. […] Phytotoxic responses of the host plants are also recorded at this time.

[2] = system: Vetch aphid (Megoura viciae); experiment: Activity against vetch aphid, bean leaf disks in microtiterplates; conditions: foliar, 144 h, test solution 2500 mg/L, 2.5 μl sprayed on bean leaf disks, 6 days
Method: II.5 Activity Against Vetch Aphid (Megoura viciae)
The active compounds were formulated in 1:3 (vol:vol) DMSO: water with different concentrations of formulated compounds.
Bean leaf disks were placed into microtiterplates filled with 0.8% agar-agar and 2.5 ppm OPUS™. The leaf disks were sprayed with 2.5 μl of the test solution and 5 to 8 adult aphids were placed into the microtiterplates which were then closed and kept at 23±1° C. and 50±5% relative humidity under fluorescent light for 6 days. Mortality was assessed on the basis of vital, reproduced aphids. Aphid mortality and fecundity was then visually assessed.

[3] = system: Silverleaf whitefly (bemisia argentifolii, adult); experiment: Activity against silverleaf whitefly, sprayed cotton plants; conditions: 72 h, whitefly adults, assessed 3 days after treatment, read-out: mortality in comparison with untreated controls
Method: II.4 Activity Against Silverleaf Whitefly (bemisia argentifolii, Adult)
(§4) The active compounds were formulated in cyclohexanone as a 10,0000 ppm solution supplied in 1.3 ml ABgene® tubes. These tubes were inserted into an automated electrostatic sprayer equipped with an atomizing nozzle and they served as stock solutions for which lower dilutions were made in 50% acetone:50% water (v/v). A nonionic surfactant (Kinetic®) was included in the solution at a volume of 0.01% (v/v).
Cotton plants at the cotyledon stage (one plant per pot) were sprayed by an automated electrostatic plant sprayer equipped with an atomizing spray nozzle. The plants were dried in the sprayer fume hood and then removed from the sprayer. Each pot was placed into a plastic cup and 10 to 12 whitefly adults (approximately 3-5 days old) were introduced. The insects were collected using an aspirator and 0.6 cm, nontoxic Tygon® tubing (R-3603) connected to a barrier pipette tip. The tip, containing the collected insects, was then gently inserted into the soil containing the treated plant, allowing insects to crawl out of the tip to reach the foliage for feeding. Cups were covered with a reusable screened lid (150-micron mesh polyester screen PeCap from Tetko, Inc.). […] Mortality was assessed 3 days after treatment, compared to untreated control plants.

[4] = system: Cowpea aphid (Aphis craccivora); experiment: Activity against cowpea aphid, spray on potted cowpea plants; conditions: spray on colonized cowpea plants, population reduction assessed after 24, 72 and 120 hours, read-out: mortality in comparison with untreated controls
Method: II.3 Activity Against Cowpea Aphid (Aphis craccivora)
The active compounds were formulated in 50:50 (vol:vol) acetone:water. The test solution was prepared at the day of use.
Potted cowpea plants colonized with 100-150 aphids of various stages were sprayed after the pest population had been recorded. Population reduction was assesed after 24, 72, and 120 hours.

[5] = system: Green peach aphid (Myzus persicae, mixed life stages); experiment: Activity against green peach aphid, foliar spray on infested bell pepper plants; conditions: 120 h, determined after 5 days, read-out: mortality in comparison with untreated controls
Method: II.2 Activity Against Green Peach Aphid (Myzus persicae, Mixed Life Stages)
as §4
Bell pepper plants at the first true-leaf stage were infested prior to treatment by placing heavily infested leaves from the main colony on top of the treatment plants. Aphids were allowed to transfer overnight to accomplish an infestation of 30-50 aphids per plant and the host leaves were removed. The infested plants were then sprayed by an automated electrostatic plant sprayer equipped with an atomizing spray nozzle. The plants were dried in the sprayer fume hood, removed, and then maintained in a growth room under fluorescent lighting in a 24-hr photoperiod at 25° C. and 20-40% relative humidity. Aphid mortality on the treated plants, relative to mortality on untreated control plants, was determined after 5 days.

[6] = system: Cotton aphids (Aphis gossypii); experiment: Hydroponic test against cotton aphids, bare-root cotton plants; conditions: bare roots immersed 24 hours, assay 3 days, read-out: mortality in comparison with untreated controls
Method: II.8 Activity in the Hydroponic Tests against Cotton Aphids (Aphis gossypii)
as §1, with “Cotton” for “Green pepper”, “(Gossypium hirsutum,” for “(Capsicum annuum L.,”, “‘Sure Grow 747’)” for “‘California Wonder’)”, “Metro-Mix®” for “MetroMix®”
as §2
as §3, with “cotton” for “pepper”, “cotton aphids (Aphis gossypii)” for “green peach aphid (Myzus persicae)”

[7] = system: Vanda/Orchid thrips (Dichromothrips corbetti); experiment: Activity against Vanda/orchid thrips, petal dip; conditions: orchid petals dipped, recorded after 72 hours, read-out: mortality in comparison with untreated controls
Method: II.7 Activity Against Vanda/Orchid Thrips (Dichromothrips corbetti)
The active compounds were formulated as a 50:50 (vol:vol) acetone:water solution. Surfactant (Alkamuls EL 620) was added at the rate of 0.1% (vol/vol). Vanda orchids petals were cleaned, washed and air dried prior to spraying. Petals were dipped into the test solution for 3 seconds, air dried, placed inside a resealable plastic and inoculated with 20 adults. The treated petals were kept inside the holding room at 28-29° C. and relative humidity of 50-60%. Percent mortality was recorded after 72 hours.

[8] = system: Green peach aphid (Myzus persicae); experiment: Activity against green peach aphid through systemic means, artificial diet in 96-well microtiter plates; conditions: 72 h, read-out: mortality in comparison with untreated controls
Source text: II.6 Activity Against Green Peach Aphid (Myzus persicae)
For evaluating control of green peach aphid (Myzus persicae) through systemic means the test unit consisted of 96-well-microtiter plates containing liquid artificial diet under an artificial membrane.
The compounds were formulated using a solution containing 75% v/v water and 25% v/v DMSO. Different concentrations of formulated compounds were pipetted into the aphid diet, using a custom built pipetter, at two replications. After application, 5 to 8 adult aphids were placed on the artificial membrane inside the microtiter plate wells. The aphids were then allowed to suck on the treated aphid diet and incubated at about 23+1° C. and about 50+5% relative humidity for 3 days. Aphid mortality and fecundity was then visually assessed.

[9] = system: Cotton aphid (Aphis gossypii, mixed life stages); experiment: Activity against cotton aphid, foliar spray on infested cotton plants; conditions: 120 h, determined after 5 days, read-out: mortality in comparison with untreated controls
Method: II.1 Activity Against Cotton Aphid (Aphis gossypii, Mixed Life Stages)
as §4
Cotton plants at the cotyledon stage were infested with aphids prior to treatment by placing a heavily infested leaf from the main aphid colony on top of each cotyledon. Aphids were allowed to transfer overnight to accomplish an infestation of 80-100 aphids per plant and the host leaf was removed. The infested plants were then sprayed by an automated electrostatic plant sprayer equipped with an atomizing spray nozzle. The plants were dried in the sprayer fume hood, removed from the sprayer, and then maintained in a growth room under fluorescent lighting in a 24-hr photoperiod at 25° C. and 20-40% relative humidity. Aphid mortality on the treated plants, relative to mortality on untreated control plants, was determined after 5 days.

SMILES	mortality at 100 ppm [1] [%]	mortality at 2500 µg/mL [2] [%]	mortality at 300 ppm [3] [%]	mortality at 300 ppm [4] [%]	mortality at 300 ppm [5] [%]	mortality at 100 ppm [6] [%]	mortality at 500 ppm [7] [%]	mortality at 2500 ppm [8] [%]	mortality at 300 ppm [9] [%]
O=C(Nc1ccnnc1)c1conc1C1CC1 [Compound 4, 3-Cyclopropyl-isoxazole-4-carboxylic acid pyridazin-4-ylamide]	≥ 75	≥ 90	≥ 75	≥ 90	≥ 75	≥ 75	≥ 50	100	≥ 75
CN(C(=O)c1conc1C1CC1)c1ccnnc1 [Compound 5, 3-Cyclopropyl-isoxazole-4-carboxylic acid methyl-pyridazin-4-yl-amide]	≥ 75	≥ 90	≥ 75	≥ 90	≥ 75	≥ 75	≥ 50	100	≥ 75
